Assay results reported in patent publication US12297201B2, “Substituted pyrrolo[2,3-d]pyrimidines as antimicrobials” (BIOVERSYS AG, priority 2018, dated 2025).

What was measured:
[1] = system: Escherichia coli (E. coli) strain ATCC25922; experiment: standard microdilution assay to determine MIC against E. coli; format: cell-based
Description: (§1) The in vitro activity of the compounds of the present disclosure can be determined. Antimicrobial testing is typically performed to determine the minimum inhibitory concentration (MIC). Minimum inhibitory concentrations (MICs) are determined by the microdilution method in a final volume of 100 μl according to protocols outlined by The Clinical and Laboratory Standards Institute (CLSI). Performance standards for reference strains are assessed within the same experimental design to maintain quality control. See, for example, Clinical Laboratory Standards Institute: Methods for dilution antimicrobial susceptibility tests for bacteria that grow aerobically M7-A8. Approved Standard-Eighth Edition. Wayne, Pa.: CLSI; December 2008; and Clinical Laboratory Standards Institute: Performance Standards for Antimicrobial Susceptibility Testing M100-S20; Approved Standard-Twentieth Edition. Wayne, Pa.: CLSI; June 2010. The compounds of the present disclosure were tested for antimicrobial activity. The Compounds 1-105 were run against Escherichia coli (E. coli) strain ATCC25922 and against Staphylococcus aureus (S. aureus) 11540 strain using a standard microdilution assay to determine minimum inhibitory concentrations (MICs). […] It will be recognized by one skilled in the art that the compounds can be assessed against other bacterial organisms and that the presentation of data for activity against Escherichia coli and Staphylococcus aureus are illustrative and in no way is intended to limit the scope of the present disclosure. The compounds of the present disclosure can be assayed against a range of other microorganisms depending upon the performance activity desired to be gathered. Furthermore, the “+” and “−” representation and the selection of a cutoff value of 16 micrograms/mL is also illustrative and in no way is intended to limit the scope of the present disclosure.

[2] = system: Staphylococcus aureus (S. aureus) 11540 strain; experiment: standard microdilution assay to determine MIC against S. aureus; format: cell-based
Description: as §1

Compound | MIC [1] [µg/mL] | MIC [2] [µg/mL]
C[C@H](N)CCCc1cc(Cl)c(F)c(-c2cc3cn(-c4ccc([C@@H]5CCC[C@@H](CCOC(=N)N)N5C)cc4)c(=O)nc3[nH]2)c1 [Compound 2] | ≤ 16 | ≤ 16
C[C@H](N)CCCc1cc(Cl)c(F)c(-c2cc3cn(-c4ccc([C@@H]5CCC[C@@H](CCOC(=N)N)N5CCCF)cc4)c(=O)nc3[nH]2)c1 [Compound 3] | ≤ 16 | ≤ 16
C[C@H](N)CCCc1cc(Cl)c(F)c(-c2cc3cn(-c4ccc([C@@H]5CCC[C@@H](CCOC(=N)N)N5CCC5CCOCC5)cc4)c(=O)nc3[nH]2)c1 [Compound 4] | ≤ 16 | ≤ 16
C[C@H](N)CCCc1cc(Cl)c(F)c(-c2cc3cn(-c4ccc([C@@H]5CCC[C@@H](CCOC(=N)N)N5CCF)cc4)c(=O)nc3[nH]2)c1 [Compound 5] | ≤ 16 | ≤ 16
COCCN1[C@H](CCOC(=N)N)CCC[C@H]1c1ccc(-n2cc3cc(-c4cc(CCC[C@H](C)N)cc(Cl)c4F)[nH]c3nc2=O)cc1 [Compound 6] | ≤ 16 | ≤ 16
CCCN1[C@H](CCOC(=N)N)CCC[C@H]1c1ccc(-n2cc3cc(-c4cc(CCC[C@H](C)N)cc(Cl)c4F)[nH]c3nc2=O)cc1 [Compound 7] | ≤ 16 | ≤ 16
CSCCN1[C@H](CCOC(=N)N)CCC[C@H]1c1ccc(-n2cc3cc(-c4cc(CCC[C@H](C)N)cc(Cl)c4F)[nH]c3nc2=O)cc1 [Compound 8] | ≤ 16 | ≤ 16
C[C@H](N)CCCc1cc(Cl)c(F)c(-c2cc3cn(-c4ccc([C@@H]5CCC[C@@H](CCOC(=N)N)N5CCC5CC5)cc4)c(=O)nc3[nH]2)c1 [Compound 9] | ≤ 16 | ≤ 16
CC(C)CN1[C@H](CCOC(=N)N)CCC[C@H]1c1ccc(-n2cc3cc(-c4cc(CCC[C@H](C)N)cc(Cl)c4F)[nH]c3nc2=O)cc1 [Compound 10] | ≤ 16 | ≤ 16
COC(=O)CN1[C@H](CCOC(=N)N)CCC[C@H]1c1ccc(-n2cc3cc(-c4cc(CCC[C@H](C)N)cc(Cl)c4F)[nH]c3nc2=O)cc1 [Compound 11] | ≤ 16 | ≤ 16
C[C@H](N)CCCc1cc(Cl)c(F)c(-c2cc3cn(-c4ccc([C@@H]5CCC[C@@H](CCOC(=N)N)N5CCCO)cc4)c(=O)nc3[nH]2)c1 [Compound 12] | ≤ 16 | ≤ 16
C=CCN1[C@H](CCOC(=N)N)CCC[C@H]1c1ccc(-n2cc3cc(-c4cc(CCC[C@H](C)N)cc(Cl)c4F)[nH]c3nc2=O)cc1 [Compound 13] | ≤ 16 | ≤ 16
CCN1[C@H](CCOC(=N)N)CCC[C@H]1c1ccc(-n2cc3cc(-c4cc(CCC[C@H](C)N)cc(Cl)c4F)[nH]c3nc2=O)cc1 [Compound 14] | ≤ 16 | ≤ 16
C[C@H](N)CCCc1cc(Cl)c(F)c(-c2cc3cn(-c4ccc([C@@H]5CCC[C@@H](CCOC(=N)N)N5CCCSC(=N)N)cc4)c(=O)nc3[nH]2)c1 [Compound 15] | ≤ 16 | ≤ 16
C[C@H](N)CCCc1cc(Cl)c(F)c(-c2cc3cn(-c4ccc([C@@H]5CCC[C@@H](CCOC(=N)N)N5C5CC5)cc4)c(=O)nc3[nH]2)c1 [Compound 16] | ≤ 16 | ≤ 16
CN1[C@H](CCOC(=N)N)CCC[C@H]1c1ccc(-n2cc3cc(-c4cc(CCC[C@@H](N)C5CC5)cc(Cl)c4F)[nH]c3nc2=O)cc1 [Compound 17] | ≤ 16 | ≤ 16
C=C[C@H](N)CCCc1cc(Cl)c(F)c(-c2cc3cn(-c4ccc([C@@H]5CCC[C@@H](CCOC(=N)N)N5C)cc4)c(=O)nc3[nH]2)c1 [Compound 18] | ≤ 16 | ≤ 16
CN1[C@H](CCOC(=N)N)CCC[C@H]1c1ccc(-n2cc3cc(-c4cc(CCC[C@@H](N)COC(=N)N)cc(Cl)c4F)[nH]c3nc2=O)cc1 [Compound 19] | ≤ 16 | ≤ 16
COC(=N)NCC[C@@H]1CCC[C@@H](c2ccc(-n3cc4cc(-c5cc(CCC[C@H](C)N)cc(Cl)c5F)[nH]c4nc3=O)cc2)N1 [Compound 20] | ≤ 16 | ≤ 16
